Experimental data: article PMC3698126, “MtnBD Is a Multifunctional Fusion Enzyme in the Methionine Salvage Pathway of Tetrahymena thermophila” (PLoS ONE, 2013)
Blank lines part the entries; values can stand above or below the molecule they belong to.

Columns and labels:
[1] = target: Tetrahymena thermophila MtnBD, full-length, histidine-tagged recombinant protein (Tetrahymena thermophila); experiment: native gel or EMSA; native-PAGE, 5-20% gradient polyacrylamide gel, non-denaturing conditions, 1 ug purified protein, mass estimated against native high molecular weight markers; oligomer size from native mass over calculated monomer mass
MtnB domain = target: T1, MtnB domain (Tetrahymena thermophila, UniProt I7MAL0); experiment: UV-visible and 1H-NMR product analysis; type: biochemical; settings: dehydratase/enolase to HK-MTPenyl-1-P; 5 mM MgCl2, pH 8.0, 35°C; substrate made in situ from MTR-1-P by MtnA; kcat only, no Km
T1 construct: gene TTHERM_00467500

Full-length MtnBD = target: T2, Full-length MtnBD (Tetrahymena thermophila, UniProt I7MAL0); experiment: UV-visible and 1H-NMR product analysis; type: biochemical; settings: dehydratase/enolase to HK-MTPenyl-1-P; 5 mM MgCl2, pH 8.0, 35°C; substrate made in situ from MTR-1-P by MtnA; kcat only, no Km
T2 construct: gene TTHERM_00467500
T2 sequence (I7MAL0 1-400): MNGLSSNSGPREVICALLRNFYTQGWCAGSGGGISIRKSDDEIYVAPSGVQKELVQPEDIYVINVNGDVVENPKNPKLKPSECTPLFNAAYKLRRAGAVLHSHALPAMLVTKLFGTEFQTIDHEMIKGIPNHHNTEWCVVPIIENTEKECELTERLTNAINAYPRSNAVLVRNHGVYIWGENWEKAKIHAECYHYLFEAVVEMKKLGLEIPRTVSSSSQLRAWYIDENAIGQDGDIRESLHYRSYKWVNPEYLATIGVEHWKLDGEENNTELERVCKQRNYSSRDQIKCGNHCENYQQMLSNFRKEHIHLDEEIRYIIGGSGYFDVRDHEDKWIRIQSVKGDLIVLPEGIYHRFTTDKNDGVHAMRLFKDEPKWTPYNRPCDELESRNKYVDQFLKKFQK

B. subtilis MtnX = target: T3, B. subtilis MtnX (Bacillus subtilis, UniProt O31667); experiment: UV-visible spectral shift to […] nm and 1H-NMR; type: biochemical; settings: phosphatase reaction to DHK-MTPene; pH 8.0, 35°C; substrate made in situ by T. thermophila MtnB domain
T3 sequence (O31667 1-235): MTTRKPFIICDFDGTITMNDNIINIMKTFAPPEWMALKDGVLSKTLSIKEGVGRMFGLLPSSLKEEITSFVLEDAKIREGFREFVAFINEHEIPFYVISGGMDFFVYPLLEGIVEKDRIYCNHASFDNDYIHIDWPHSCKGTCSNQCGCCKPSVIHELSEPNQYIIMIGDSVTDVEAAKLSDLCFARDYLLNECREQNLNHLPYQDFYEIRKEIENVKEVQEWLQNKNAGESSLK

[2] = target: MtnB domain of Tetrahymena thermophila MtnBD (Met1-Ser216), histidine-tagged recombinant protein (Tetrahymena thermophila); experiment: native gel or EMSA; native-PAGE, 5-20% gradient polyacrylamide gel, non-denaturing conditions, 1 ug purified protein, mass estimated against native high molecular weight markers; oligomer size from native mass over calculated monomer mass

stoichiometry N [1]: 6
Molecule: Tetrahymena thermophila MtnBD, full-length, histidine-tagged recombinant protein (enzyme)

Molecule: CSC[C@@H](O)[C@@H](O)C(=O)COP(=O)(O)O [MTRu-1-P]
UV-visible and 1H-NMR product analysis (MtnB domain): MtnB domain catalyzed the dehydration/enolization reactions to convert MTRu-1-P to HK-MTPenyl-1-P
UV-visible and 1H-NMR product analysis (Full-length MtnBD): T. thermophila MtnBD catalyzed the conversion of MTRu-1-P to HK-MTPenyl-1-P

Molecule: CSCCC(=O)C(O)=COP(=O)(O)O [HK-MTPenyl-1-P]
UV-visible spectral shift to 310 nm and 1H-NMR (B. subtilis MtnX): DHK-MTPene was obtained from the reaction of B. subtilis MtnX with HK-MTPenyl-1-P

stoichiometry N [2]: 6
Molecule: MtnB domain of Tetrahymena thermophila MtnBD (Met1-Ser216), histidine-tagged recombinant protein (domain or fragment)
